Data from ChEMBL document CHEMBL1155687, “Anthoptilides A-E, new Briarane diterpenes from the Australian sea pen Anthoptilum cf. kukenthali” (J Nat Prod, 2000).
pIC50: −log10 of the molar value.

Biological target: T1, Adenosine receptor A1 (Rattus norvegicus, UniProt P25099)
T1 sequence (P25099 whole entry): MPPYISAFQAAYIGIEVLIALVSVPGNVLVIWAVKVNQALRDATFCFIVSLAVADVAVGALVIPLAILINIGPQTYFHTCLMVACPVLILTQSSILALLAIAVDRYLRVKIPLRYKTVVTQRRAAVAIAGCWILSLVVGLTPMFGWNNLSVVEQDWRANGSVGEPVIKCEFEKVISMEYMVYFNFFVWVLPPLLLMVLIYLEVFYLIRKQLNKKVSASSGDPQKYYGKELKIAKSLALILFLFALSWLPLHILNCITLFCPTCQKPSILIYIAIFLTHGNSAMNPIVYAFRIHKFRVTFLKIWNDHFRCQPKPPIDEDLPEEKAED
Experiment: Displacement of [3H]DPCPX from adenosine A1 receptor in rat brain membrane
Format: cell membranes

| SMILES | pIC50 |
| --- | --- |
| CC(=O)O[C@H]1C(=O)C=C(C)[C@@H]2CC3=C(C)C(=O)O[C@H]3/C=C(/C)CC[C@@H](OC(=O)C(C)C)[C@]21C [ANTHOPTILIDE B] | 4.35 |
| C/C=C(\C)C(=O)O[C@@H]1CC/C(C)=C\[C@@H]2OC(=O)C(C)=C2C[C@H]2C(C)=CC(=O)[C@H](OC(C)=O)[C@]12C [ANTHOPTILIDE A] | 3.38 |
| CCC(=O)O[C@@H]1CC/C(C)=C\[C@@H]2OC(=O)C(C)=C2C[C@H]2C(C)=CC(=O)[C@H](OC(C)=O)[C@]12C [ANTHOPTILIDE C] | 5.51 |
| CC(=O)O[C@H]1C(=O)C=C(C)[C@@H]2CC3=C(C)C(=O)O[C@H]3/C=C(/C)CC[C@@H](OC(=O)c3ccccc3)[C@]21C [ANTHOPTILIDE D] | 3.30 |
| CCC(=O)O[C@@H]1CC/C(C)=C\[C@@H]2OC(=O)C(C)=C2C[C@H]2C(C)=C[C@H](OC(C)=O)[C@H](OC(C)=O)[C@]12C [ANTHOPTILIDE E] | 3.31 |
